# Key:
# Format in all cases: in vivo
# Echinocloa crus-galli = assay: Greenhouse post-emergence herbicidal activity, ECHCG; details: Echinochloa crus-galli, ECHCG
# Source text: (§1) The culture containers used were plastic flowerpots containing loamy sand with approximately 3.0% of humus as the substrate. The seeds of the test plants were sown separately for each species.
# (§2) For the post-emergence treatment, the test plants were first grown to a height of 3 to 15 cm, depending on the plant habit, and only then treated with the active ingredients which had been suspended or emulsified in water. For this purpose, the test plants were either sown directly and grown in the same containers, or they were first grown separately as seedlings and transplanted into the test containers a few days prior to treatment.
# (§3) Depending on the species, the plants were kept at 10-25° C. or 20-35° C., respectively.
# (§4) The test period extended over 2 to 4 weeks. During this time, the plants were tended, and their response to the individual treatments was evaluated.
# (§5) Evaluation was carried out using a scale from 0 to 100. 100 means no emergence of the plants, or complete destruction of at least the aerial moieties, and 0 means no damage, or normal course of growth. A good herbicidal activity is given at values of at least 70 and a very good herbicidal activity is given at values of at least 85.
# Cirsium arvense = assay: Greenhouse post-emergence herbicidal activity, CIRAR; details: CIRAR
# Source text: as §1, §2, §3, §4, §5
# Chenopodium album = assay: Greenhouse post-emergence herbicidal activity, CHEAL; details: scale 0 to 100; for pest or weed control at 31 g/ha: 0.031 kg/ha; for pest or weed control at 125 g/ha: 0.125 kg/ha; for pest or weed control at 63 g/ha: 0.063 kg/ha
# Source text: as §1, §2, §3, §4, §5
# Capsella bursa-pastoris = assay: Greenhouse post-emergence herbicidal activity, CAPBP; details: 0.063 kg/ha, scale 0 to 100
# Source text: as §1, §2, §3, §4, §5
# Zea mays = assay: Greenhouse post-emergence herbicidal activity on crop ZEAMX (corn, maize); design: key: 0 = no damage/normal growth, 100 = no emergence or complete destruction
# Source text: as §1, §2, §3, §4, §5
# Setaria viridis = assay: Greenhouse post-emergence herbicidal activity, SETVI; details: 2 kg/ha, scale 0 to 100
# Source text: as §1, §2, §3, §4, §5
# Abutilon theophrasti = assay: Greenhouse post-emergence herbicidal activity, ABUTH; details: ABUTH; for pest or weed control at 2000 g/ha: 2 kg/ha, scale 0 to 100, read-out: Herbicidal activity
# Source text: as §1, §2, §3, §4, §5
# Amaranthus retroflexus = assay: Greenhouse post-emergence herbicidal activity, AMARE; details: AMARE; for pest or weed control at 2000 g/ha: 2 kg/ha, scale 0 to 100, read-out: Herbicidal activity
# Source text: as §1, §2, §3, §4, §5
# Erigeron canadensis = assay: Greenhouse post-emergence herbicidal activity, ERICA
# Source text: as §1, §2, §3, §4, §5
# Oryza sativa = assay: Greenhouse post-emergence herbicidal activity on crop ORYSA (rice)
# Source text: as §1, §2, §3, §4, §5
# Eriochloa villosa = assay: Greenhouse post-emergence herbicidal activity, ERBVI; details: 0.031 kg/ha, scale 0 to 100
# Source text: as §1, §2, §3, §4, §5
# Setaria faberi = assay: Greenhouse post-emergence herbicidal activity, SETFA; details: 0.25 kg/ha, scale 0 to 100
# Source text: as §1, §2, §3, §4, §5
# [1] = ZEAMX (corn, crop), 0.063 kg/ha, scale 0 to 100
smiles,measurement,setting,value
"CCS(=O)(=O)N(C)c1c(Cl)ccc(C2=C(O)c3ncccc3C(C)(C)S2(=O)=O)c1Cl [I-19, N-[2,6-dichloro-3-(8-hydroxy-5,5-dimethyl-6,6-dioxo-thiopyrano[4,3-b]pyridin-7-yl)phenyl]-N-methyl-ethanesulfonamide]",pest or weed control at 31 g/ha,"Echinocloa crus-galli; 0.031 kg/ha, scale 0 to 100",98%
same,pest or weed control at 125 g/ha,"Echinocloa crus-galli; 0.125 kg/ha, scale 0 to 100",100%
same,pest or weed control at 63 g/ha,"Cirsium arvense; 0.063 kg/ha, scale 0 to 100, read-out: Herbicidal activity",100%
same,pest or weed control at 31 g/ha,Chenopodium album,98%
same,pest or weed control at 125 g/ha,Chenopodium album,100%
same,Herbicidal activity,Capsella bursa-pastoris,100
same,Herbicidal activity,Zea mays; [1],0
same,Herbicidal activity,Setaria viridis,100
same,pest or weed control at 2000 g/ha,Abutilon theophrasti,98%
same,pest or weed control at 31 g/ha,"Amaranthus retroflexus; 0.031 kg/ha, scale 0 to 100",98%
same,pest or weed control at 63 g/ha,"Amaranthus retroflexus; 0.063 kg/ha, scale 0 to 100",100%
same,pest or weed control at 125 g/ha,"Amaranthus retroflexus; 0.125 kg/ha, scale 0 to 100",100%
same,pest or weed control at 2000 g/ha,Amaranthus retroflexus,100%
"CN(c1c(Cl)ccc(C2=C(O)c3ncccc3C(C)(C)S2(=O)=O)c1Cl)S(=O)(=O)CC1CC1 [I-21, 1-cyclopropyl-N-[2,6-dichloro-3-(8-hydroxy-5,5-dimethyl-6,6-dioxo-thiopyrano[4,3-b]pyridin-7-yl)phenyl]-N-methyl-methanesulfonamide]",pest or weed control at 31 g/ha,"Echinocloa crus-galli; 0.031 kg/ha, scale 0 to 100",98%
same,pest or weed control at 2000 g/ha,"Echinocloa crus-galli; 2 kg/ha, scale 0 to 100, read-out: Herbicidal activity",100%
same,pest or weed control at 125 g/ha,"Cirsium arvense; 0.125 kg/ha, scale 0 to 100",100%
same,pest or weed control at 31 g/ha,Chenopodium album,95%
same,pest or weed control at 63 g/ha,Chenopodium album,98%
same,Herbicidal activity,"Erigeron canadensis; 0.063 kg/ha, scale 0 to 100",100
same,Herbicidal activity,"Erigeron canadensis; 0.125 kg/ha, scale 0 to 100",100
same,Herbicidal activity,"Oryza sativa; ORYSA (rice, crop), 0.031 kg/ha, scale 0 to 100",0
same,Herbicidal activity,"Oryza sativa; ORYSA (rice, crop), 0.063 kg/ha, scale 0 to 100",30
same,Herbicidal activity,"Oryza sativa; ORYSA (rice, crop), 0.125 kg/ha, scale 0 to 100",45
same,pest or weed control at 2000 g/ha,Abutilon theophrasti,100%
same,pest or weed control at 31 g/ha,"Amaranthus retroflexus; 0.031 kg/ha, scale 0 to 100",98%
same,pest or weed control at 63 g/ha,"Amaranthus retroflexus; 0.063 kg/ha, scale 0 to 100",98%
same,pest or weed control at 125 g/ha,"Amaranthus retroflexus; 0.125 kg/ha, scale 0 to 100",100%
same,pest or weed control at 2000 g/ha,Amaranthus retroflexus,100%
"CN(c1c(Cl)ccc(C2=C(O)c3ncccc3C(C)(C)S2(=O)=O)c1Cl)S(=O)(=O)C1CC1 [I-28, N-[2,6-dichloro-3-(8-hydroxy-5,5-dimethyl-6,6-dioxo-thiopyrano[4,3-b]pyridin-7-yl)phenyl]-N-methyl-cyclopropanesulfonamide]",Herbicidal activity,Eriochloa villosa,95
same,pest or weed control at 63 g/ha,"Echinocloa crus-galli; 0.063 kg/ha, scale 0 to 100",98%
same,pest or weed control at 125 g/ha,"Echinocloa crus-galli; 0.125 kg/ha, scale 0 to 100",100%
same,pest or weed control at 250 g/ha,"Echinocloa crus-galli; 0.25 kg/ha, scale 0 to 100",100%
same,pest or weed control at 31 g/ha,Chenopodium album,98%
same,pest or weed control at 63 g/ha,Chenopodium album,98%
same,pest or weed control at 125 g/ha,Chenopodium album,98%
same,Herbicidal activity,"Zea mays; ZEAMX (corn, crop), 0.031 kg/ha, scale 0 to 100",20
same,Herbicidal activity,Zea mays; [1],30
same,Herbicidal activity,Setaria faberi,100
same,pest or weed control at 31 g/ha,"Amaranthus retroflexus; 0.031 kg/ha, scale 0 to 100",98%
same,pest or weed control at 63 g/ha,"Amaranthus retroflexus; 0.063 kg/ha, scale 0 to 100",98%
same,pest or weed control at 125 g/ha,"Amaranthus retroflexus; 0.125 kg/ha, scale 0 to 100",98%
same,pest or weed control at 250 g/ha,"Amaranthus retroflexus; 0.25 kg/ha, scale 0 to 100",98%
"CN(c1c(Cl)ccc(C2=C(O)c3ncccc3C(C)(C)S2(=O)=O)c1C(F)(F)F)S(C)(=O)=O [I-32, N-[6-chloro-3-(8-hydroxy-5,5-dimethyl-6,6-dioxo-thiopyrano[4,3-b]pyridin-7-yl)-2-(trifluoromethyl)phenyl]-N-methyl-methanesulfonamide]",pest or weed control at 31 g/ha,Echinocloa crus-galli; application rate 0.031 kg/ha,90%
same,pest or weed control at 63 g/ha,Echinocloa crus-galli; application rate 0.063 kg/ha,98%
same,pest or weed control at 125 g/ha,Echinocloa crus-galli; application rate 0.125 kg/ha,95%
same,Herbicidal activity,Erigeron canadensis; application rate 0.25 kg/ha,100
same,Herbicidal activity,"Zea mays; crop ZEAMX (corn, maize), application rate 0.031 kg/ha",5
same,Herbicidal activity,"Zea mays; crop ZEAMX (corn, maize), application rate 0.063 kg/ha",5
same,Herbicidal activity,"Zea mays; crop ZEAMX (corn, maize), application rate 0.125 kg/ha",15
same,Herbicidal activity,"Oryza sativa; crop ORYSA (rice), application rate 0.25 kg/ha",30
same,pest or weed control at 31 g/ha,Abutilon theophrasti; application rate 0.031 kg/ha,95%
same,pest or weed control at 63 g/ha,Abutilon theophrasti; application rate 0.063 kg/ha,90%
same,pest or weed control at 125 g/ha,Abutilon theophrasti; application rate 0.125 kg/ha,95%
same,pest or weed control at 250 g/ha,Abutilon theophrasti; application rate 0.25 kg/ha,98%
same,pest or weed control at 31 g/ha,Amaranthus retroflexus; application rate 0.031 kg/ha,98%
same,pest or weed control at 63 g/ha,Amaranthus retroflexus; application rate 0.063 kg/ha,98%
same,pest or weed control at 125 g/ha,Amaranthus retroflexus; application rate 0.125 kg/ha,98%
same,pest or weed control at 250 g/ha,Amaranthus retroflexus; application rate 0.25 kg/ha,98%

# — patent US10023590B2, “Substituted pyridine compounds having herbicidal activity” (BASF SE, priority 2014, dated 2018)
